Reference: patent US6251627A (priority 1998, dated 2001)

T1: K^b sol (soluble H-2K^b with murine β-2 microglobulin) (Mus musculus, UniProt P01901)
T1 construct: The cDNAs encoding K^b α1α2α3 domains (274 residues) and murine β-2 microglobulin (99 residues); made in house; host or cells: Drosophila S2/M3 cells, secreted into serum-free medium
T1 sequence (P01901 22-295): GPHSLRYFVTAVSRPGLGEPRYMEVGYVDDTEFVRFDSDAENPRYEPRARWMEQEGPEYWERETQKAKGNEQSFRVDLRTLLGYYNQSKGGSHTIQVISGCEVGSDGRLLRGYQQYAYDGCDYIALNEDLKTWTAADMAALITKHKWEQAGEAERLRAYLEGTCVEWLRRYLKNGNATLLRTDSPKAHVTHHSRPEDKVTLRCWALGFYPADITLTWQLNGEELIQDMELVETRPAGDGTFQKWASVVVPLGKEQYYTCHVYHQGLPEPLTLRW
T1 sequence (P01887 21-119 partner): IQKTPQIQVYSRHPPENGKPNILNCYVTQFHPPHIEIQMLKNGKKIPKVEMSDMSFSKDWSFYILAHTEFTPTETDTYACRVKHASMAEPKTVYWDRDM


Legend:
[1] = molecular target: T1, K^b sol (soluble H-2K^b with murine β-2 microglobulin); assay: biochemical; format: binding
B3/CD8 T-cell hybridoma = assay: antigen presentation assay with B3/CD8 T-cell hybridoma (IL-2 by CTLL 3H thymidine incorporation); format: cell-based, mouse; details: Drosophila cells transfected with K^b/β2; peptide in culture medium or protein osmotically loaded
Experimental: Osmotic loading of SC2 and 3T3 cells with ovalbumin protein was carried out as described by Moore, et al., Cell 54: 777-785 (1988). The assay procedure is as follows. In a 96-well dish, 1×10^5 Drosophila cells (with or without peptide/protein loaded) or 3T3 cells were cocultured with 1×10^5 B3/CD8 T-cell hybridoma cells in 200 μl of RPMI media supplemented with 10% fetal bovine serum. After 24 hours of incubation, 100 μl of the supernatant from these cultures was added to 100 μl of RPMI containing 5,000 CTLL cells. The cells were cocultured for 24 hours at 37° C. when 1 μCi of ^3 H thymidine (Amersham) was added. After a further incubation of 15 hours at 37° C., the incorporation of radiolabel into the CTLL cells was determined by scintillation counting.
Assays conducted with murine MHC also verified that the insect cells are capable of loading peptide onto the Class I molecules. Cells expressing as few as 200-500 MHC molecules containing a particular antigen can be detected by a T-cell. […] Upon antigenic stimulation, B3/CD8 produces IL-2, measured by ^3 H thymidine incorporation in IL-2-dependenT-cell line CTLL (Gillis, et al., J. Immunol. 120: 2027 91978)). Thus, by measuring the amount of IL-2 produced, one can assay for T-cell recognition. […]

| Molecule | Kd [1] [nM] | T-cell recognition (IL-2 production by B3/CD8) (B3/CD8 T-cell hybridoma) |
| --- | --- | --- |
| CC(C)C[C@H](NC(=O)CNC(=O)[C@H](CCC(N)=O)NC(=O)[C@H](Cc1ccc(O)cc1)NC(=O)[C@@H](NC(=O)[C@H](Cc1ccc(O)cc1)NC(=O)CNC(=O)[C@@H](N)CCCNC(=N)N)C(C)C)C(=O)O [VSV-8] | 3.7 | – |
| ovalbumin (protein, UniProt P01012 2-386, looked up, ovalbumin (Sigma) osmotically loaded into the cells) Ovalbumin: GSIGAASMEFCFDVFKELKVHHANENIFYCPIAIMSALAMVYLGAKDSTRTQINKVVRFDKLPGFGDSIEAQCGTSVNVHSSLRDILNQITKPNDVYSFSLASRLYAEERYPILPEYLQCVKELYRGGLEPINFQTAADQARELINSWVESQTNGIIRNVLQPSSVDSQTAMVLVNAIVFKGLWEKAFKDEDTQAMPFRVTEQESKPVQMMYQIGLFRVASMASEKMKILELPFASGTMSMLVLLPDEVSGLEQLESIINFEKLTEWTSSNVMEERKIKVYLPRMKMEEKYNLTSVLMAMGITDVFSSSANLSGISSAESLKISQAVHAAHAEINEAGREVVGSAEAGVDAASVSEEFRADHPFLFCIKHIATNAVLFFGRCVSP | – | no recognition occurred |
